# Measurements published in patent US20200060994A1, “METHODS OF TREATING PSYCHIATRIC STRESS DISORDERS” (Yeda Research and Development Co. Ltd., priority 2017, published 2020).
# Entries after “also recorded” stand apart in the source; their conditions may differ. Where a name gives a salt, the structure may show the parent alone.
# What was measured:
# [1] = test system: wild type C57BL6 mice; experiment: Elevated plus maze (EPM) test, wild type mice; assay type: in vivo, mouse
# Protocol: (§1) All drugs were administered by intraperitoneal injection (I.P.). […] A. CNS Drug Rev.
# (§2) The EPM contains two open arms and two enclosed ones connected by a central square. Exploration on the open arms is reduced in high anxiety states while it is increased in low anxiety states [Walf, A. A. & Frye, C. A. Nat. Protoc. 2, 322-8 (2007)]. Mice were placed on the central platform facing one of the “open” arms to initiate a 5-minutes test session and the time spent in each arm was measured. The test was performed under 7 lx and 65 dB white noise. The number of entries into, the time spent/distance on the open arms and the percentage of the open arm entries compared with total number of arm entries were recorded using the VideoMot2 software (TSE System, Germany) or the Ethovision XT11 software (Noldus Information Technology, The Netherlands).
# [2] = test system: importin α5 KO mice; experiment: Elevated plus maze (EPM) test, importin α5 KO mice; assay type: in vivo, mouse; conditions: PF-543 10 mg/kg i.p.
# Protocol: as §1, §2
# [3] = test system: wild type C57BL6 mice; experiment: Open field (OF) test, wild type mice; conditions: for anxiolytic properties / behavior in the OF test: 1 hour following i.p. injection vs vehicle, Sitosterol 100 mg/kg, Alvespimycin 75 mg/kg, Fluspirilene 10 mg/kg; for number of rearings in the OF center: larger cohort n=10 mice per group, P<0.01
# [4] = test system: importin α5 KO mice; experiment: Open field (OF) test, importin α5 KO mice; assay type: in vivo, mouse; conditions: FG-7142 5 mg/kg intraperitoneally, OF after 30 min
# Protocol: as §1
# [5] = β-sitosterol 100 mg/kg, 1 hour following injection, vs vehicle
# [6] = β-sitosterol 100 mg/kg IP, 1 and 6 hours following injection, vs vehicle
# [7] = S1P receptor agonist 0.1 mg/kg i.p., C57BL6, vs vehicle
# [8] = S1P receptor agonist 0.1 mg/kg i.p., C57Bl6
smiles,measurement,setting,value
Cc1cc(CS(=O)(=O)c2ccccc2)cc(OCc2ccc(CN3CCC[C@@H]3CO)cc2)c1 [PF-543],anxiety-related behavior of WT mice in the EPM,"[1]; PF-543 10 mg/kg i.p., WT mice",did not influence
same,distance travelled in the open arms,[2]; importin α5 KO animals,significantly decreased
same,time spent in the open arms,[2]; importin α5 KO animals,significantly decreased
same,anxiolytic phenotype of importin α5 KO mice in the EPM,[2]; 10 mg/kg,attenuated; also recorded: reverse the anxiolytic response of importin α5 KOs towards WT values
CC[C@H](CC[C@@H](C)[C@H]1CC[C@H]2[C@@H]3CC=C4C[C@@H](O)CC[C@]4(C)[C@H]3CC[C@]12C)C(C)C [β-sitosterol],distance in the open arms of the EPM,[1]; [5],significant increase
same,time spent in the open arms of the EPM,[1]; [5],significant increase
same,anxiolytic properties / behavior in the OF test,[3],anxiolytic effect
same,distance travelled in the OF center,[3]; [6],increasing
same,number of visits in the OF center,[3]; [6],increasing
same,time course of anxiolytic effects in the OF test,[3]; β-sitosterol by injection,apparent 1 hour post-injection and persisted until 6 hours following injection
same,"anxiolytic effect in the OF test, dose response","[3]; β-sitosterol intraperitoneally at the indicated doses, 1 hour following injection",clear dose-dependent anxiolytic effects; also recorded: reaching significance for the highest dose tested
O=C1NCN(c2ccccc2)C12CCN(CCCC(c1ccc(F)cc1)c1ccc(F)cc1)CC2 [fluspirilene],anxiolytic properties / behavior in the OF test,[3],anxiolytic effect
"CNCCC(Oc1ccc(C(F)(F)F)cc1)c1ccccc1 (stereo not drawn) [fluoxetine, Fluoxetine hydrochloride]","anxiolytic effect in the OF test, dose-response","[3]; fluoxetine 2, 5, 10 or 20 mg/kg vs vehicle, 10 minutes OF test",dose dependent anxiolytic effect
same,anxiolytic effects in the OF test,[3]; fluoxetine doses of 5 mg/kg and below,no apparent effect
same,anxiolytic effects in the OF test,[3]; fluoxetine doses of 10 mg/kg and above,significant anxiolytic effects
CCc1cc(/C(C)=N/OCc2ccc(C3CCCCC3)c(C(F)(F)F)c2)ccc1CN1CC(C(=O)O)C1 [siponimod],time spent in the open arms of the EPM,[1]; [7],significant increase
same,anxiety levels in the EPM assay,[1]; [8],markedly reduced
same,distance in the open arms of the EPM,"[1]; siponimod 0.1 mg/kg i.p. every 3 days during 4 weeks, vs vehicle",significant increase
same,distance travelled in the center of the OF,[3]; [7],significant increase
same,time spent in the center of the OF,[3]; [7],significant increase
same,anxiety levels in the OF assay,[3]; [8],markedly reduced
same,center/border ratio (for the exploration time) in the OF,"[3]; siponimod 0.1 mg/kg i.p. every 3 days during 4 weeks, vs saline",higher
CNC(=O)c1cc2c(cn1)[nH]c1ccccc12 [FG-7142],distance travelled in the center of the OF,[4],significantly decreases
same,number of rearing events in the center,[4],significantly decreases
same,anxiolytic phenotype of importin α5 KO mice in the OF test,[4]; 5 mg/kg,reversed anxiolysis
CO[C@H]1/C=C\C=C(/C)C(=O)NC2=CC(=O)C(NCCN(C)C)=C(C[C@@H](C)C[C@H](OC)[C@H](O)[C@@H](C)/C=C(\C)[C@@H]1OC(N)=O)C2=O [alvespimycin],anxiolytic properties / behavior in the OF test,[3],marked yet variable differences; also recorded: anxiolytic effect
same,rearing activity in the center,"[3]; alvespimycin 75 mg/kg i.p., 1 hour, single dosage regime, FIG. 12A",reaching statistical significance
same,motor performances in the OF test,"[3]; alvespimycin, independent cohort n=10, FIG. 12B",without adverse effects
same,number of rearings in the OF center,"[3]; alvespimycin, FIG. 12B",6.2±2.07
same,number of rearings in the OF center,"[3]; alvespimycin, FIG. 12B, listed as Alvespimycin",increase
same,time spent in the center area,"[3]; alvespimycin, n=10 per group, FIG. 12B, P=0.052",increased
same,latency to access the center area,"[3]; alvespimycin, n=10 per group, FIG. 12B, P=0.08",increased
same,number of visit in the center area,"[3]; alvespimycin, n=10 per group, FIG. 12B, P=0.09",increased
